Source: patent US20160287514A1 (PIERRE FABRE MEDICAMENT, priority 2012, published 2016)
Where two headings read alike, the source gives them in different places.

What was measured:
[1] = in vivo; cited from earlier work
[2] = format: physicochemical
pharyngitis = conditions: ibuprofen 400 mg; meta-analysis; cited from earlier work

CC(C(=O)O)c1ccc(-c2ccccc2)c(F)c1 (centres unmarked) [flurbiprofen]
half-life [1]: 4 h

CC(C)Cc1ccc(C(C)C(=O)O)cc1.O.O.[Na] (centres unmarked) [Sod, ibuprofen sodium dihydrate]
content of impurities compared among the salts ([2]; regardless of the long term temperature and humidity conditions): lowest content of impurities

ibuprofen lysinate
total content of impurities ([2]; T0, closed pill box): <0.1 percentage
total content of impurities ([2]; T1 month, 25° C., RH 60, closed pill box): 0.15 percentage
total content of impurities ([2]; T1 month, 40° C., RH 75, closed pill box): 0.19 percentage
total content of impurities ([2]; T1 month, 40° C., RH 75, open pill box): 0.53 percentage
total content of impurities ([2]; T2 months, 25° C., RH 60, closed pill box): 0.15 percentage
total content of impurities ([2]; T2 months, 40° C., RH 75, closed pill box): 0.21 percentage
total content of impurities ([2]; T2 months, 40° C., RH 75, open pill box): 2.21 percentage
total content of impurities ([2]; T3 months, 25° C., RH 60, closed pill box): 0.17 percentage
total content of impurities ([2]; T3 months, 40° C., RH 75, closed pill box): 0.27 percentage
total content of impurities ([2]; T3 months, 40° C., RH 75, open pill box): 3.10 percentage
total content of impurities ([2]; T15 d, 40° C., RH 75, closed pill box): 0.28 percentage

CC(C)Cc1ccc(C(C)C(=O)O)cc1 (centres unmarked) [ibuprofen, 2-(4-(2-methylpropyl)phenyl)propanoic acid]
pain relief in pharyngitis compared with acetaminophene (1000 mg, paracetamol) (pharyngitis): significant superiority
